# Source: patent US10849982B2, “C3-carbon linked glutarimide degronimers for target protein degradation” (C4 Therapeutics, Inc., priority 2016, dated 2020)
# Tests used:
# CRBN-DDB1 = CRBN-DDB1 (Homo sapiens (Human), UniProt Q96SW2); assay: CRBN-DDB1 fluorescence polarization (FP) binding assay; conditions: displacement of Thalidomide-Alexa Fluor or Pomalidomide-fluorescein probe; Table 2
# Protocol: Measuring compound ligand binding to CRBN-DDB1 was carried out using an established sensitive and quantitative in vitro fluorescence polarization (FP) based binding assay. […] Compounds were dispensed from serially diluted DMSO stock into black 384-well compatible fluorescence polarization plates using an Echo acoustic dispenser. Compound binding to CRBN-DDB1 was measured by displacement of either a (−)-Thalidomide-Alexa Fluor® or Pomalidomide-fluorescein conjugated probe dye. […] Matching control wells excluding CRBN-DDB1 were used to correct for background fluorescence. Plates were read on an Envision plate reader with appropriate FP filter sets. The corrected S (perpendicular) and P (parallel) values were used to calculate fluorescence polarization (FP) with the following equation: FP=1000*(S−G*P)/(S+G*P).
# MOLT4.1 (WT) cell line = assay: Cell viability analysis (CellTiter-Glo 2.0), MOLT4.1; type: cell-based; conditions: MOLT4.1, 72 hr
# Protocol: (§1) CellTiter-Glo® 2.0 Assay was purchased from Promega (Medison, Wis., USA). MOLT4.1 (WT) cell line was purchased from ATCC (Manassas, Va., USA) and MOLT4.2 (CRBN Knock Out) cell line was generated in house. Cell culture flasks and 384-well microplates were acquired from VWR (Radnor, Pa., USA).
# (§2) MOLT4.1 and MOLT4.2 cell viability was determined based on quantification of ATP using CellTiter-Glo® 2.0 luminescent Assay kit, which signals the presence of metabolically-active cells. Briefly, MOLT4.1 and MOLT4.2 cells were seeded into 384-well plates at a cell density of 750 cells per well, the plates were kept at 37° C. with 5% CO2 overnight. On the following day, test compounds were added to the cells from a top concentration of 1 μM with 10 points, half log titration in duplicates. The cells treated in the absence of the test compound were the negative control and the cells treated in the absence of CellTiter-Glo® 2.0 were the positive control. At the same day of compound treatment, CellTiter-Glo® 2.0 was added to a plate with cells treated in the absence of the test compound to establish Cytostatic control value (Cro). Cells treated with the test compound were incubated for 72 hr. CellTiter-Glo reagent was then added to the cells and Luminescence was acquired on EnVision™ Multilabel Reader (PerkinElmer, Santa Clara, Calif., USA).
# (§3) MOLT4.1 and MOLT4.2 cell viability was determined based on quantification of ATP using CellTiter-Glo® 2.0 luminescent Assay kit, which signals the presence of metabolically-active cells. Briefly, MOLT4.1 and MOLT4.2 cells were seeded into 384-well plates at a cell density of 750 cells per well, the plates were kept at 37° C. with 5% CO2 overnight. On the following day, test compounds were added to the cells from a top concentration of 1 μM with 10 points, half log titration in duplicates. […] CellTiter-Glo reagent was then added to the cells and Luminescence was acquired on EnVision™ Multilabel Reader (PerkinElmer, Santa Clara, Calif., USA).
# [1] = system: MOLT4.2 (CRBN Knock Out) cell line; assay: Cell viability analysis (CellTiter-Glo 2.0), MOLT4.2; type: cell-based; conditions: MOLT4.2, 72 hr
# Protocol: as §1, §2, §3
# BRD4 BD1 = BRD4 BD1 (Homo sapiens (Human), UniProt O60885); assay: HiBit assay, BRD4 BD1 degradation analysis; type: cell-based; conditions: BRD4_BD1, 293T.29 cells, 3 hr
# Protocol: DMEM no-phenol red medium and fetal bovine serum (FBS) were purchased from Gibco (Grand Island, N.Y., USA). Nano-Glo® HiBiT Lytic Assay System was purchased from Promega (Medison, Wis., USA). 293T.29 (HiBiT-BRD4 BD1) cell line was generated in house, ectopically expressing BRD4 BD1 domain with HiBiT fusion tag. Cell culture flasks and 384-well microplates were acquired from VWR (Radnor, Pa., USA).
# BRD4 BD1 degradation was determined based on quantification of luminescent signal using Nano-Glo® HiBiT Lytic Assay kit. Test compounds were added to the 384-well plate from a top concentration of 1 μM with 11 points, half log titration in quadruplicates. 293T.29 cells were added into 384-well plates at a cell density of 15000 cells per well. The plates were kept at 37° C. with 5% CO2 for 3 hours. The cells treated in the absence of the test compound were the negative control and the cells treated with 30 nM of a known BRD4 degrader were the positive control. After 3-hour incubation, Nano-Glo® HiBiT Lytic Assay reagents were added to the cells. Luminescence was acquired on EnVision™ Multilabel Reader (PerkinElmer, Santa Clara, Calif., USA).
# CRBN-DDB1, sequence (Q96SW2 whole entry): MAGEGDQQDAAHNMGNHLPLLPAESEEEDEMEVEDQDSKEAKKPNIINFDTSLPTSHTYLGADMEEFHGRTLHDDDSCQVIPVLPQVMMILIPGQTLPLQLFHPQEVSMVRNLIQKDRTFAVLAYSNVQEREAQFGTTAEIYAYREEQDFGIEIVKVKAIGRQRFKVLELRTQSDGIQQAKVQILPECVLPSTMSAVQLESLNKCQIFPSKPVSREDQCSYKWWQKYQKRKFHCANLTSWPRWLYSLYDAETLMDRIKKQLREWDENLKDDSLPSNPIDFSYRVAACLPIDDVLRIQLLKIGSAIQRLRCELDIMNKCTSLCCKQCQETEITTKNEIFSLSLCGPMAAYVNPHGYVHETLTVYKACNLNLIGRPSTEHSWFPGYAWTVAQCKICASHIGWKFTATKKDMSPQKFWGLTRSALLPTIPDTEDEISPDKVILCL
# CRBN-DDB1, sequence (Q16531 whole entry partner): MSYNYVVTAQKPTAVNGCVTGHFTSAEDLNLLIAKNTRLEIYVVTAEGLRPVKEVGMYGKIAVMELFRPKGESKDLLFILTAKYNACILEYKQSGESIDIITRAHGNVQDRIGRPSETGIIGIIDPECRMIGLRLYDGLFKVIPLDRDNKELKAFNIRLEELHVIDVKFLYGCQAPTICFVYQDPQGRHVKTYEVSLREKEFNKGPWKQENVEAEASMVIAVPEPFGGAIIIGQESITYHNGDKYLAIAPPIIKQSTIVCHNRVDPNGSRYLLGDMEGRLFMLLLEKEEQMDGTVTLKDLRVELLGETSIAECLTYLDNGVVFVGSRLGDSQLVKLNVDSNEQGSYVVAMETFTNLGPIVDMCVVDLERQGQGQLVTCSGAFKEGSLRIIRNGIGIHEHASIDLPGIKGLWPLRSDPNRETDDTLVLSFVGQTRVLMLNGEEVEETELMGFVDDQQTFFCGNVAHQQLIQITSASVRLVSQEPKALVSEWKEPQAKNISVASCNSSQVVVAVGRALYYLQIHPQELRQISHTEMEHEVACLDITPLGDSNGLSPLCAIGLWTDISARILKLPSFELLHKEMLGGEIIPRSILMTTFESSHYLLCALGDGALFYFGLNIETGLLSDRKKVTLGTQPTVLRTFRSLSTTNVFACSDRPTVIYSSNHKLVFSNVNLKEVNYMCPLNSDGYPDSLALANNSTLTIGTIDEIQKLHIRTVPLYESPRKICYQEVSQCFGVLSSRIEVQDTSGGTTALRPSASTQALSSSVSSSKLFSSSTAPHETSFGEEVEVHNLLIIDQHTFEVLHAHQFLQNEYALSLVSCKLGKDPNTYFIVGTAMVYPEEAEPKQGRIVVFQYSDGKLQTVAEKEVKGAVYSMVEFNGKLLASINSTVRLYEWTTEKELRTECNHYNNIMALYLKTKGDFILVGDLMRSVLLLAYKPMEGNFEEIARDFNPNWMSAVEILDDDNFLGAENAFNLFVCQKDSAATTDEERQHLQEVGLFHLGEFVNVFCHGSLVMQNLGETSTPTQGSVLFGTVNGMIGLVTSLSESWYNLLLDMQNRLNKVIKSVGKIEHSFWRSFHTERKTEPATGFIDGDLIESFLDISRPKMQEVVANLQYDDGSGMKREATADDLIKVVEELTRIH
smiles,measurement,setting,value
"Cc1sc2c(c1C)C(c1ccc(Cl)cc1)=N[C@@H](CC(=O)NCCCCCCCC(=O)Nc1ccc3c(C4CCC(=O)NC4=O)nn(C)c3c1)c1nnc(C)n1-2 (stereo partly drawn) [Degronimer 1, 8-(2-((S)-4-(4-chlorophenyl)-2,3,9-trimethyl-6H-thieno[3,2-f][1,2,4]triazolo[4,3-a][1,4]diazepin-6-yl)acetamido)-N-(3-(2,6-dioxopiperidin-3-yl)-1-methyl-1H-indazol-6-yl)octanamide]",Kd,CRBN-DDB1,< 10 µM
same,Emax,MOLT4.1 (WT) cell line,0 to 50%
same,GI50,MOLT4.1 (WT) cell line,0.1 to 1 µM
same,LD50 (nM),MOLT4.1 (WT) cell line,+ (>1 μM = +)
same,Emax,[1],> 50%
same,GI50,[1],> 1 µM
same,LD50 (nM),[1],+ (>1 μM = +)
same,DC50,BRD4 BD1,> 0.83 µM
